Patent US20010011085A1, “4-SUBSTITUTED CEPHEM DERIVATIVES AS ELASTASE INHIBITORS” (priority 1995, published 2001)

Molecular target: T1, human leukocyte elastase (HLE) (Homo sapiens, UniProt P08246)
T1 construct: purchased Elastin Product Company
T1 sequence (P08246 30-267): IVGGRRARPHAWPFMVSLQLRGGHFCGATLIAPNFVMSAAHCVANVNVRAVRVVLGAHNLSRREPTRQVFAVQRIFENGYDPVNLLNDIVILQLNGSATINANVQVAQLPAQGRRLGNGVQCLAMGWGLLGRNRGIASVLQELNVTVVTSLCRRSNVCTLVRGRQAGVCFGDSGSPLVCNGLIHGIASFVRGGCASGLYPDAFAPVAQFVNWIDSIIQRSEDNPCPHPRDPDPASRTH
Assay: Kinetic parameters for HLE inhibition (fluorogenic substrate assay)
Assay type: biochemical
Details: 37° C., 0.027M pH 7.4 phosphate buffer, substrate N-methoxysuccinyl-alanyl-prolyl-valyl-7-amido-4-methylcoumarin; for Ki: read-out: "Potency" Ki^ss (apparent dissociation constant of the HLE-inhibitor complex at steady state)
Procedure: The compounds of the present invention are characterized by high inhibitory activity on elastases, especially human leukocyte elastase (HLE). […] These efficacy parameters for HLE inhibition, Ki^ss and k5/Ki, are defined in the equation below, representing the interaction of the enzyme (E) with the compounds (I), which is monitored (see Protocol) in the presence of a […] enzyme substrate (S): [formula]
Kinetic parameters of HLE (Elastin Product Company) were determined at 37° C., 0.027M pH 7.4 phosphate buffer, […], 1% MeCN, NaCl (I=0.15), by monitoring the release of 7-amino-4-methylcoumarin (fluorescence detection) from N-methoxysuccinyl-alanyl-prolyl-valyl-7-amido-4-methylcoumarin as the substrate, according to the equations: [formula]
Full details of the Experimental Protocol are reported in M. Alpegiani et al., Eur. J. Med. Chem. 1992, 27, 875-890.

"Efficiency" k5/Ki (rate of formation of the HLE-inhibitor complex)	Ki [nM]	SMILES
27,000 M^−1s^−1	20	CO[C@H]1C(=O)N2C(C(=O)N3CCCC3)=C(C)C(Sc3nc(=O)c(O)nn3C)S(=O)(=O)[C@H]12 (stereo partly drawn) [Compound No. 11, (6R,7S)-4-(6-Hydroxy-2-methyl-5-oxo-2,5-dihydro-[1,2,4]triazin-3-yl-sulfanyl)-7-methoxy-3-methyl-5,5-dioxo-2-(pyrrolidine-1-carbonyl)-5-thia-1-aza-bicyclo [4.2.0]oct-2-en-8-one]
9,200 M^−1s^−1	100	CO[C@H]1C(=O)N2C(C(=O)N3CCCC3)=C(CSc3nc(=O)c(=O)[nH]n3C)CS(=O)(=O)[C@H]12 [Reference, reference compound]

SMILES	"Efficiency" k5/Ki (rate of formation of the HLE-inhibitor complex)	Ki [nM]
CO[C@H]1C(=O)N2C(C(=O)N3CCCC3)=C(C)C(OC(=O)c3c(C)cc(C)cc3C)S(=O)(=O)[C@H]12 (stereo partly drawn) [Compound No. 1, 2,4,6-Trimethylbenzoic Acid (6R,7S)-7-methoxy-3-methyl-5,5,8-trioxo-2-(pyrrolidine-1-carbonyl)-5-thia-1-aza-bicyclo[4.2.0] oct-2-en-4-yl Ester]	800,000 M^−1s^−1	< 2
